Counter-ions that a name gives are not always drawn.
Legend:
[1] = Phase I clinical trial, weekly intravenous administration, subjects with refractory solid tumors (safety, tolerability); assay type: in vivo, human; conditions: i.v. weekly x3 per 4 week cycle, 0.3-3.3 mg/m^2
Experimental: An open-label, dose-escalating, multiple-dose study to define the safety, tolerability and pharmacokinetics of weekly intravenous administration of (4-Methoxy-phenyl)-methyl-(2-methyl-quinazolin-4-yl)-amine hydrochloride was performed. A dosing schedule (each 4 week cycle) was performed for (4-Methoxy-phenyl)-methyl-(2-methyl-quinazolin-4-yl)-amine hydrochloride weekly for 3 weeks with no infusion on the fourth week of each cycle. Subjects with refractory solid tumors were enrolled in cohorts of 3. During Cycle 1, subjects were hospitalized during each infusion of (4-Methoxy-phenyl)-methyl-(2-methyl-quinazolin-4-yl)-amine hydrochloride and remained for observation and safety evaluation for approximately 24 hours following the end of the infusion. All subject had continuous telemetry for 2 hours prior to infusion, for 1-2 hour infusion and for 3 hours after the end of the infusion. Any clinically significant electrocardiographic (ECG) wave form abnormality was recorded and prolongation of the monitoring period extended at the discretion of the principal investigator.
Electrocardiograms were obtained prior to starting the infusion and within 30 minutes of the end of infusion for each infusino of the first cycle. Electrocardiograms on Day 1 were obtained in triplicate 5 minutes apart.
Neurocognitive assessments were made by administration of the Mini-Mental State Examination (MMSE), the Hopkins Verbal Learning and timed Grooved Pegboard tests before administration of the intravenous infusion and approximately 24 hours of the infusion at each weekly administration of the first cycle.
On days 1, 8, and 15 of each cycle, vital signs were obtained prior to the first dose, at 15, 30, and 60 minutes after the initiation of the infusion, and at 0.5, 1, 1.5, 2, and 4 hours after the end of the intravenous infusion. Vital signs at all time points beyond the start of the intravenous infusion included heart rate, blood pressure and respirations. Temperature was measured at the end of the infusion and 4 hours later.
Individual subjects were allowed to continue on repeated weekly ×3 administrations every 28 days with no dose increase provided there was no unacceptable toxicity or disease progression.
Tumor response was evaluated by response evaluation criteria in solid tumors (RECIST) criteria. To prevent sever hypersensitivity reactions due to Cremophor® EL, subjects were premedicated with oral dexamethasone (20 mg) administered approximately 12 and 6 hours before the intervenous infusion with (4-Methoxy-phenyl)-methyl-(2-methyl-quinazolin-4-yl)-amine hydrochloride, diphenhydramine (50 mg) or its equivalent administered intravenously 30-60 minutes before (4-Methoxy-phenyl)-methyl-(2-methyl-quinazolin-4-yl)-amine hydrochloride, and cimetidine (300 mg) or ranitidine (50 mg) administered intravenously 30-60 minutes before (4-Methoxy-phenyl)-methyl-(2-methyl-quinazolin-4-yl)-amine hydrochloride.

[2] = test system: human ovarian OVCAR-3 carcinoma cells; assay: Vascular disruption effects in human tumor xenograft model (tumor histology, hematoxylin and eosin Y); assay type: in vivo, Crl:Nu/Nu-nuBR mice; conditions: OVCAR-3 xenograft, 24 hours after dosing; for blood vessels in the necrotic areas / tumor necrosis pattern (central area of the tumors): 10 mg/kg test compound, 100 mg/kg CA4P
Experimental: (4-Methoxy-phenyl)-methyl-(2-methyl-quinazolin-4-yl)-amine hydrochloride was tested in a human tumor xenograft model to determine its vascular disruption effects. Crl:Nu/Nu-nuBR mice were grown and injected with 1×10^7 human ovarian OVCAR-3 carcinoma cells on the right flank and allowed to grow to various tumor volumes. Mice were then dosed with either vehicle, 100 mg/kg combretastatin A-4 phosphate (CA4P) (obtained from Toronto Research Chemicals, Ontario, Canada) or 10 mg/kg (4-Methoxy-phenyl)-methyl-(2-methyl-quinazolin-4-yl)-amine hydrochloride.
Animals were housed by groups in Positive Individual Ventilation (PIV) cages in flat-bottom cages (Thoren Caging Systems, Hazelton, Pa.) with no more than ten mice per cage. Cages contained autoclaved TEK-Fresh bedding (Harlan, Indianapolis, Ind.), which was changed every seven days. Environmental controls were set to maintain a temperature between 65° F. and 75° F. with a relative humidity of 30-70% in a 12:12 hour light:dark cycle. Animals were feed gamma-irradiated 2019 rodent chow ad libitum (Harlan, Indianapolis, Ind.). Tap water was sterilized using manufacture recommended conditions and supplied via an automated watering system ad libitum (Edstrom Industries, Waterford, Wis.). Twenty four hours after dosing, mice were sacrificed and tumors and hearts removed, fixed, sectioned and stained with hematoxylin and eosin Y (each obtained from Richard Allen Scientific, Kalamazoo, Mich.).

| Structure (SMILES) | bradycardia [1] | dose limiting toxicity [1] | intratumor bleeding [1] | overall safety and tolerability [1] | peripheral cytotoxicity [1] | systolic blood pressure [1] | effects on cardiac conduction (PR, QRS or QTC) ([1]; ECG) | blood vessels in the necrotic areas [2] | tumor necrosis pattern (central area of the tumors) [2] | degree of necrosis compared with CA4P treated animals ([2]; 10 mg/kg vs 100 mg/kg CA4P) |
| --- | --- | --- | --- | --- | --- | --- | --- | --- | --- | --- |
| COc1ccc(N(C)c2nc(C)nc3ccccc23)cc1 [(4-Methoxy-phenyl)-methyl-(2-methyl-quinazolin-4-yl)-amine hydrochloride] | occasional episodes of bradycardia | vascular in nature, manifested by an acute coronary syndrome | incidences of intratumor bleeding | safe and tolerable | no evidence of cytotoxity peripherally | dose-related increase | no significant effects | consistently congested with perivascular hemorrhage | extensive necrosis with a rim of viable tumor tissue around the periphery | greater |
| COc1ccc(/C=C\c2cc(OC)c(OC)c(OC)c2)cc1OP(=O)(O)O [CA4P, combretastatin A-4 phosphate, reference compound] |  |  |  |  |  |  |  | consistently congested with perivascular hemorrhage | extensive necrosis with a rim of viable tumor tissue around the periphery |  |
